{"source": "patent US12383505B2", "about": "“Nanoparticle for the remodeling of cancer-associated fibroblasts” (University of South Carolina, priority 2021, dated 2025)", "key": {"[1]": {"tested_on": "NIH3T3 cells", "experiment": "DOX induced CAF differentiation, immunocytochemistry of α-SMA and fibronectin", "format": "cell-based, mouse", "conditions": "0.05 μM of free DOX for 48 hours", "from_the_text": "(§1) Anthracycline-containing regimens are predominantly used in neoadjuvant chemotherapy for breast cancer. See, J. Wang, T. A. Buchholz, L. P. Middleton, D. C. Allred, S. L. Tucker, H. M. Kuerer, F. J. Esteva, G. N. Hortobagyi, A. A. Sahin, Cancer 2002, 94, 3107; M. S. van Ramshorst, A. van der Voort, E. D. van Werkhoven, I. A. Mandjes, I. Kemper, V. O. Dezentjé, I. M. Oving, A. H. Honkoop, L. W. Tick, A. J. van de Wouw, The Lancet Oncology 2018. However, only a little benefit was achieved from this neoadjuvant chemotherapy in the majority of patients. […] Chen, Y.-A. Lai, Y.-C. Lin, J.-W. Ma, L.-F. Huang, N.-S. Yang, C.-T. Ho, S.-C. Kuo, T.-D. Way, Journal Of Agricultural And Food Chemistry 2013, 61, 11817; N. Chintalaramulu, R. Vadivelu, N. Nguyen, I. Cock, Inflammopharmacology 2020, especially at lower doses. To investigate the relationship between DOX and the differentiation and transdifferentiation of CAF and the potential effect of T-CeNP in inhibiting DOX-induced metastasis, T-CeNP was added to NIH3T3 and 4T1 cells either before or after receiving DOX treatment. The expression of the CAF related proteins, including α-SMA and fibronectin, and metastasis-associated E-cadherin were evaluated by immunocytochemistry. […] The quantitative comparison of their corresponding fluorescence intensities further verified these trends. […]"}, "[2]": {"tested_on": "4T1 cells", "experiment": "DOX induced EMT, immunocytochemistry of E-cadherin", "format": "cell-based, murine", "conditions": "0.05 μM of free DOX for 48 hours", "from_the_text": "as §1"}, "[3]": {"tested_on": "4T1-luc orthotopic tumor", "experiment": "Neoadjuvant chemotherapy in orthotopic breast cancer model: primary tumor", "format": "in vivo, BALB/c mice", "conditions": "i.v., CeNP 1 mg/kg, DOX 3 mg/kg, every 3 days for 4 times", "protocol": "(§2) The 4T1 orthotopic model was established following our previous method with a minor modification. All animal experiments were conducted in accordance with NIH regulations and approved by the Institutional Animal Care and Use Committee of the University of South Carolina. 4T1/Luc2 cells (2×10^5 in 20 μl PBS) were injected into the right 4th mammary fat pad of 6-8 weeks female BALB/c mice, and the primary tumor growth was monitored through bioluminescence signal using IVIS imaging system. Two weeks post tumor cell inoculation, the mice were randomly divided into 6 groups (n=10), including control, T-CeNP, T-DOX, free DOX, T-CeNP+T-DOX, and T-CeNP+ Free DOX, and received corresponding neoadjuvant chemotherapy, surgery, and postoperative chemotherapy. In brief, for neoadjuvant chemotherapy, the drugs were intravenously injected at a CeNP dosage of 1 mg/kg and DOX dosage of 3 mg/kg every 3 days for 4 times. Specifically, for the groups of\n(§3) T-CeNP+T-DOX and T-CeNP+ free DOX, T-CeNP was administrated to mice 2 days prior to T-DOX or Free DOX treatment. Two days after the last dose, all mice underwent complete\nsurgical removal of the tumors following our previous method. Two days after the surgery, the mice received another 3 times administration of T-CeNP, T-DOX, free DOX, and their combination as post-surgical chemotherapy. […]"}, "[4]": {"tested_on": "4T1-luc lung and liver metastasis", "experiment": "Post-surgery lung and liver metastasis in orthotopic breast cancer model", "format": "in vivo, BALB/c mice", "protocol": "as §2, §3\nsurgical removal of the tumors following our previous method. Two days after the surgery, the mice received another 3 times administration of T-CeNP, T-DOX, free DOX, and their combination as post-surgical chemotherapy. At the end of the study (day 24), the mice were sacrificed, and the lung and liver were harvested for ex vivo bioluminescence imaging to examine the metastasis.\nThe harvested tumors and major organs were fixed with 4% paraformaldehyde and processed by paraffin sectioning and frozen sectioning. Tissue sections (heart, liver, spleen, and kidney) and lung sections were hematoxylin and eosin (H&E) stained for acute toxicity evaluation and lung metastasis evaluation. […] All the immunofluorescence images were recorded with a fluorescence microscope (Evos™ FL, ThermoFisher Scientific, MA, USA)."}, "[5]": {"conditions": "ex vivo bioluminescence imaging, day 24"}}, "data": [{"compound": "COc1cccc2c1C(=O)c1c(O)c3c(c(O)c1C2=O)C[C@@](O)(C(=O)CO)C[C@@H]3O[C@H]1C[C@H](N)[C@H](O)[C@H](C)O1", "note": "[free DOX, doxorubicin]", "values": [{"measurement": "level of α-SMA and fibronectin", "setting": "[1]", "result": "boosted level of α-SMA and fibronectin"}, {"measurement": "E-cadherin expression", "setting": "[2]", "result": "declined E-cadherin expression"}, {"measurement": "primary tumor size", "setting": "[3]", "result": "only slightly reduced the size of the primary tumor"}, {"measurement": "liver metastasis", "setting": "[4]; [5]", "result": "inductive effect"}, {"measurement": "lung metastasis occurrence", "setting": "[4]; [5]", "result": "developed lung metastasis"}, {"measurement": "lung metastasis nodules", "setting": "[4]; nodules on the surface of lung", "result": "induced more metastasis nods in the lung"}]}]}
